Reference: ChEMBL document CHEMBL5352401, “Novel cudraisoflavone J derivatives as potent neuroprotective agents for the treatment of Parkinson's disease via the activation of Nrf2/HO-1 signaling” (Eur J Med Chem, 2022)
Active and inactive are the calls of the source. The calls are words filed in the database; no cut-off is given here.

What was measured:
PC-12 [1] = experiment: Cytotoxicity in rat PC-12 cells assessed as cell viability measured at 30 uM for 24 hrs by MTT assay; assay type: functional, cell-based
PC-12 [2] = experiment: Neuroprotective activity against 6-OHDA-induced cytotoxicity in rat PC-12 cells at 30 uM for 4 hrs followed by exposure to 6-OHDA measured after 24 hrs by MTT assay; assay type: functional, cell-based; settings: time 28.0 hrs
PC-12 [3] = experiment: Cytotoxicity in rat PC-12 cells assessed as cell viability measured at 10 to 30 uM for 24 hrs by MTT assay; assay type: functional, cell-based; settings: dose 10-30 µM
PC-12 [4] = experiment: Neuroprotective activity against 6-OHDA-induced cytotoxicity in rat PC-12 cells at 10 to 30 uM for 4 hrs followed by exposure to 6-OHDA measured after 24 hrs by MTT assay; assay type: functional, cell-based; settings: dose 10-30 µM, time 28.0 hrs
PC-12 [5] = experiment: Cytotoxicity in rat PC-12 cells assessed as cell viability incubated at 0.1 to 30 uM for 24 hrs by MTT assay relative to control; assay type: functional; settings: dose 0.1-30 µM
PC-12 [6] = experiment: Neuroprotective activity against 6-OHDA-induced cytotoxicity in rat PC-12 cells at 0.1 to 30 uM for 4 hrs followed by exposure to 6-OHDA measured after 24 hrs by MTT assay relative to control; assay type: functional; settings: dose 0.1-30 µM, time 28 hrs
PC-12 [7] = experiment: Neuroprotective activity against 6-OHDA-induced cytotoxicity in rat PC-12 cells for 4 hrs followed by exposure to 6-OHDA measured after 24 hrs by MTT assay; assay type: functional, cell-based; settings: dose 0.1-30 µM, time 28.0 hrs

| SMILES | Activity (PC-12 [3]) | Activity (PC-12 [4]) | other results |
| --- | --- | --- | --- |
| CCOc1ccc(-c2coc3cc4c(c(OCC)c3c2=O)C=CC(C)(C)O4)cc1 |  |  | Activity (PC-12 [1]): Active |
| CC1(C)Oc2c(c(O)cc3occ(-c4cccs4)c(=O)c23)CC1O (stereo unspecified) |  |  | Activity (PC-12 [2]): inactive |
| COc1ccc(-c2coc3cc(OC)c4c(c3c2=O)OC(C)(C)C(O)C4)cc1 (stereo unspecified) | inactive | inactive |  |
| Cc1cc(-c2coc3cc(O)c4c(c3c2=O)OC(C)(C)C(O)C4)ccc1F (stereo unspecified) | Active | inactive |  |
| COc1ccc(-c2coc3cc(O)c4c(c3c2=O)OC(C)(C)C(O)C4)cc1OC (stereo unspecified) | inactive | inactive |  |
| CC1(C)Oc2c(c(O)cc3occ(-c4cccc(OC(F)(F)F)c4)c(=O)c23)CC1O (stereo unspecified) | Active |  |  |
| Cc1cc(C)cc(-c2coc3cc(O)c4c(c3c2=O)OC(C)(C)C(O)C4)c1 (stereo unspecified) | Active |  | Activity (PC-12 [5]): 73%; inhibition (INH) (PC-12 [6]): 45.4%; Activity (PC-12 [7]): Dose-Dependent Effect; Activity (PC-12 [2]): Active |
| COc1ccc(-c2coc3cc(O)c4c(c3c2=O)OC(C)(C)CC4)cc1 | Active |  |  |
| CC1(C)Oc2c(c(O)cc3occ(-c4ccc(F)cc4)c(=O)c23)CC1O (stereo unspecified) | Active |  |  |
| C#CCN[C@@H]1CCc2ccccc21 | Active | Active |  |
| CC1(C)Oc2c(c(O)cc3occ(-c4ccccc4)c(=O)c23)CC1O (stereo unspecified) | inactive | Active | Activity (PC-12 [5]): 75%; inhibition (INH) (PC-12 [6]): 49.9%; Activity (PC-12 [7]): Dose-Dependent Effect; Activity (PC-12 [2]): Active |
| CC1(C)Oc2c(c(O)cc3occ(-c4cccc(C#N)c4)c(=O)c23)CC1O (stereo unspecified) | Active |  |  |
| CC(C)Oc1ccc(-c2coc3cc4c(c(OC(C)C)c3c2=O)C=CC(C)(C)O4)cc1 |  |  | Activity (PC-12 [1]): Active |
| COc1cc(OC)cc(-c2coc3cc(O)c4c(c3c2=O)OC(C)(C)C(O)C4)c1 (stereo unspecified) | inactive | inactive |  |
| CC1(C)Oc2c(c(O)cc3occ(-c4ccc(OC(F)(F)F)cc4)c(=O)c23)CC1O (stereo unspecified) | Active |  |  |
| CC1(C)Oc2c(c(O)cc3occ(-c4cc(F)cc(F)c4)c(=O)c23)CC1O (stereo unspecified) | Active | inactive |  |
| CC1(C)Oc2c(c(O)cc3occ(-c4ccc(C(F)(F)F)cc4)c(=O)c23)CC1O (stereo unspecified) | Active |  |  |
| COc1ccc(-c2coc3cc(O)c4c(c3c2=O)OC(C)(C)C(O)C4)c(OC)c1 (stereo unspecified) | inactive | inactive |  |
| CC(C)Oc1ccc(-c2coc3cc4c(c(O)c3c2=O)C=CC(C)(C)O4)cc1 |  | inactive |  |
| CC1(C)Oc2c(c(O)cc3occ(-c4ccncc4)c(=O)c23)CC1O (stereo unspecified) |  |  | Activity (PC-12 [1]): Active |
